For 19 compounds, AC50 results are on record in ChEMBL document CHEMBL5291721, “A preclinical secondary pharmacology resource illuminates target-adverse drug reaction associations of marketed drugs” (Nat Commun, 2023).

The target of test [1] is T1, Alpha-1A adrenergic receptor (Homo sapiens, UniProt P35348).
T1 sequence (P35348 whole entry): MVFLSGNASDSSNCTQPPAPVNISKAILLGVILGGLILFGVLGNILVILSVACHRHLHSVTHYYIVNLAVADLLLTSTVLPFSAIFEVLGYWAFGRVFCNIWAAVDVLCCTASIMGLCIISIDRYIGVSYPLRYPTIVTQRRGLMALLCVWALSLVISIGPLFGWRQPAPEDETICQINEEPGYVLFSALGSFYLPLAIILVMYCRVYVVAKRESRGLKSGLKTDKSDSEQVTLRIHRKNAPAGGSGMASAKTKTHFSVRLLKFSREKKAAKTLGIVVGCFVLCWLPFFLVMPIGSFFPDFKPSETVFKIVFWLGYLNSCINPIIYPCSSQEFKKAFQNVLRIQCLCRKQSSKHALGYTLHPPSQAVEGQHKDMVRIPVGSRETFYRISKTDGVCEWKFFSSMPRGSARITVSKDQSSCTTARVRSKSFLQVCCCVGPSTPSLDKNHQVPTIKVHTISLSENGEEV
The format is functional, cell-based.

Test [2] concerns the target T2, Estrogen receptor (Homo sapiens, UniProt P03372).
T2 sequence (P03372 whole entry): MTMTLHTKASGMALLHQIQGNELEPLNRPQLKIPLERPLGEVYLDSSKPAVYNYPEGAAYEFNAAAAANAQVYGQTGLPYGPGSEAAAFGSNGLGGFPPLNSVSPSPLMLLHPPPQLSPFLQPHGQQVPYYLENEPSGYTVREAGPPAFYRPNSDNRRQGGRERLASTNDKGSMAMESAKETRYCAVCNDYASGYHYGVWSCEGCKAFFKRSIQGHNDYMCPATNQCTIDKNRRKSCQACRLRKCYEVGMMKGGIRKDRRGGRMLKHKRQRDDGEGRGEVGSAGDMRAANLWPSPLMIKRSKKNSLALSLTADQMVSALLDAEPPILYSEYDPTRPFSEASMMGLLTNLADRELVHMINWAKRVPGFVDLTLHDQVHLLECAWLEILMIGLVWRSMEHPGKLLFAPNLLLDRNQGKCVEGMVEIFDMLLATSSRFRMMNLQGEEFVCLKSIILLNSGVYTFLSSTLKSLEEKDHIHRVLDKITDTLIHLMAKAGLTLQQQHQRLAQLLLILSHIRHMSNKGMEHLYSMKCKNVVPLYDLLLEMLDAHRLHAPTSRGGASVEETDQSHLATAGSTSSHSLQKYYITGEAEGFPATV

Test [3] deals with Histamine H3 receptor (Homo sapiens, UniProt Q9Y5N1).
Test [4] has as its target Vascular endothelial growth factor receptor 2 (Homo sapiens, UniProt P35968). It counts as functional.
Test [5] concerns the target T3, Amine oxidase [flavin-containing] A (Homo sapiens, UniProt P21397).
T3 sequence (P21397 whole entry): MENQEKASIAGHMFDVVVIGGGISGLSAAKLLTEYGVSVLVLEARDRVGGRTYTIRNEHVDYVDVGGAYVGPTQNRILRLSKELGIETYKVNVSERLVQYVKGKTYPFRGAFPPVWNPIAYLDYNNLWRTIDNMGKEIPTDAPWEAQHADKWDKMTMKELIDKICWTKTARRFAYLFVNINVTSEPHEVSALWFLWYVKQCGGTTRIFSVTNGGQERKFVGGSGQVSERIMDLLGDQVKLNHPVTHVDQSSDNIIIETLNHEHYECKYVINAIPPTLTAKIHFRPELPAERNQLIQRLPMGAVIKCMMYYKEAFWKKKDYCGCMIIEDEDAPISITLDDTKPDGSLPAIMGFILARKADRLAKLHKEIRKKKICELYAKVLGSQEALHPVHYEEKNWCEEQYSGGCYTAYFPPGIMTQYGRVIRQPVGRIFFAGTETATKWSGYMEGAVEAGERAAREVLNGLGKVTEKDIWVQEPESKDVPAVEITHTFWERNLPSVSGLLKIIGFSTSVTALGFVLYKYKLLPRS
The format is functional.

Test [6] addresses cGMP-inhibited 3',5'-cyclic phosphodiesterase 3A (Homo sapiens, UniProt Q14432). The format is functional.
Test [7] deals with Prostaglandin G/H synthase 1 (Homo sapiens, UniProt P23219). The format is functional.
Test [8] concerns the target Sodium-dependent serotonin transporter (Homo sapiens, UniProt P31645).

Usually AC50 stands for the midpoint of the concentration-response curve, whichever way the signal moves. Low readings indicate activity at low concentration, high ones activity only at high concentration.
Note: assay procedure not described here.

Sodium-dependent serotonin transporter, sequence (P31645 whole entry): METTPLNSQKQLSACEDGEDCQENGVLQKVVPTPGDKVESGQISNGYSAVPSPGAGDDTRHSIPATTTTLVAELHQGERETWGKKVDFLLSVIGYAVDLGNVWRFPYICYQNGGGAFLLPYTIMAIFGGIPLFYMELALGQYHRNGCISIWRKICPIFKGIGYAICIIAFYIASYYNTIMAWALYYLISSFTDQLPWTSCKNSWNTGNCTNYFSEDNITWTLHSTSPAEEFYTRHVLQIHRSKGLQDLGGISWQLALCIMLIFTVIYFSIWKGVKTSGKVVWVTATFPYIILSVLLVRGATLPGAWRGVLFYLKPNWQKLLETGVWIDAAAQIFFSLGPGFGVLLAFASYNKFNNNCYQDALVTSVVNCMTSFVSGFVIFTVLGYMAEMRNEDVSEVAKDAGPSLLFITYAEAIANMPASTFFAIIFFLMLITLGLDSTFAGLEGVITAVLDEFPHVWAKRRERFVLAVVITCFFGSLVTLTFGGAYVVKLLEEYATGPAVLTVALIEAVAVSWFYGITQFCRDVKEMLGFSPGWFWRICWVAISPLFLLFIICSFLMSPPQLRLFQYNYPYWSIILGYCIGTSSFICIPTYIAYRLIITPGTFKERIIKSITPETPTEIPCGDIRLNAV
Prostaglandin G/H synthase 1, sequence (P23219 whole entry): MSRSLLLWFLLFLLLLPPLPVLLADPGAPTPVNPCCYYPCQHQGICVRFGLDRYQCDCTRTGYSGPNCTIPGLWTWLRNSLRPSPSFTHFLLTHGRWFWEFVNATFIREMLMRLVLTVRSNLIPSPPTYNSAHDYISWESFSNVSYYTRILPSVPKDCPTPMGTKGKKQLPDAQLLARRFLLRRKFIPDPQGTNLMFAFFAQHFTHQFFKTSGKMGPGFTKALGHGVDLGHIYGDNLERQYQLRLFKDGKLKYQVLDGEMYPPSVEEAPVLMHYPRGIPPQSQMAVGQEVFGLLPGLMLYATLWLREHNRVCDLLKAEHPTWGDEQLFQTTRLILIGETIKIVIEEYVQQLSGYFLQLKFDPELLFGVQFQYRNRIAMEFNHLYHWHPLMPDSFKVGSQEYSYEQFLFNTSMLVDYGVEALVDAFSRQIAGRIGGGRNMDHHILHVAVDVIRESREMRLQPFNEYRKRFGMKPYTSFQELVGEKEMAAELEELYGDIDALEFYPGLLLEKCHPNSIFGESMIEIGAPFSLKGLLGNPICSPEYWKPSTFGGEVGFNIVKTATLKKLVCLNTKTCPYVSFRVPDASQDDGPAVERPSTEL
cGMP-inhibited 3',5'-cyclic phosphodiesterase 3A, sequence (Q14432 whole entry): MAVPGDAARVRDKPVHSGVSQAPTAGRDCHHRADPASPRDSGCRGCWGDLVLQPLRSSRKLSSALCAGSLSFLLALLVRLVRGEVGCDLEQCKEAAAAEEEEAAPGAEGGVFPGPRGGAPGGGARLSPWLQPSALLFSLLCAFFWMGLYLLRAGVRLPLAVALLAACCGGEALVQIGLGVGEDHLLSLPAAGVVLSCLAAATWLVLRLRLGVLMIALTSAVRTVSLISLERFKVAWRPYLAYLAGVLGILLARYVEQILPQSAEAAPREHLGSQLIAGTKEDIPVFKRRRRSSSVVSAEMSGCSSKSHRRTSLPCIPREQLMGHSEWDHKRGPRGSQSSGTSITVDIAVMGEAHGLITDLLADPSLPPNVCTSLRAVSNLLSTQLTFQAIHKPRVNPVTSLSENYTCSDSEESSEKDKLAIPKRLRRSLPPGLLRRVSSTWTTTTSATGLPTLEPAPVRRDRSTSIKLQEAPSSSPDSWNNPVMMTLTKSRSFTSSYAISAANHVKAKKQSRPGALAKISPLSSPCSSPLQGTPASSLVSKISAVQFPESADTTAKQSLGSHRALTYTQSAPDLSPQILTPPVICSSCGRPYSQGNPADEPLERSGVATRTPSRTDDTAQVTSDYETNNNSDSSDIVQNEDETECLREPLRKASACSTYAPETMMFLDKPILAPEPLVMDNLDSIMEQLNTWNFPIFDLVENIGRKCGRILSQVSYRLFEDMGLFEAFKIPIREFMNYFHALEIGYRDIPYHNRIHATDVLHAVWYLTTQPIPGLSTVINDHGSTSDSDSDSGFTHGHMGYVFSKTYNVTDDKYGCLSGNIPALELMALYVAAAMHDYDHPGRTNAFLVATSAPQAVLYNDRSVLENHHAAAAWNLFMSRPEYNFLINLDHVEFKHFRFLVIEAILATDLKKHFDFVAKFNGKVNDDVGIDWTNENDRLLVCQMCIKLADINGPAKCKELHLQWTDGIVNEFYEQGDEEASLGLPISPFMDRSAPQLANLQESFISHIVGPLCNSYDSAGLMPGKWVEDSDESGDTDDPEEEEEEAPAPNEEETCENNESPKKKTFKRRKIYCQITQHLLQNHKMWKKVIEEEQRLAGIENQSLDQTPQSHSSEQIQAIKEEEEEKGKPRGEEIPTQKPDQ
Vascular endothelial growth factor receptor 2, sequence (P35968 whole entry): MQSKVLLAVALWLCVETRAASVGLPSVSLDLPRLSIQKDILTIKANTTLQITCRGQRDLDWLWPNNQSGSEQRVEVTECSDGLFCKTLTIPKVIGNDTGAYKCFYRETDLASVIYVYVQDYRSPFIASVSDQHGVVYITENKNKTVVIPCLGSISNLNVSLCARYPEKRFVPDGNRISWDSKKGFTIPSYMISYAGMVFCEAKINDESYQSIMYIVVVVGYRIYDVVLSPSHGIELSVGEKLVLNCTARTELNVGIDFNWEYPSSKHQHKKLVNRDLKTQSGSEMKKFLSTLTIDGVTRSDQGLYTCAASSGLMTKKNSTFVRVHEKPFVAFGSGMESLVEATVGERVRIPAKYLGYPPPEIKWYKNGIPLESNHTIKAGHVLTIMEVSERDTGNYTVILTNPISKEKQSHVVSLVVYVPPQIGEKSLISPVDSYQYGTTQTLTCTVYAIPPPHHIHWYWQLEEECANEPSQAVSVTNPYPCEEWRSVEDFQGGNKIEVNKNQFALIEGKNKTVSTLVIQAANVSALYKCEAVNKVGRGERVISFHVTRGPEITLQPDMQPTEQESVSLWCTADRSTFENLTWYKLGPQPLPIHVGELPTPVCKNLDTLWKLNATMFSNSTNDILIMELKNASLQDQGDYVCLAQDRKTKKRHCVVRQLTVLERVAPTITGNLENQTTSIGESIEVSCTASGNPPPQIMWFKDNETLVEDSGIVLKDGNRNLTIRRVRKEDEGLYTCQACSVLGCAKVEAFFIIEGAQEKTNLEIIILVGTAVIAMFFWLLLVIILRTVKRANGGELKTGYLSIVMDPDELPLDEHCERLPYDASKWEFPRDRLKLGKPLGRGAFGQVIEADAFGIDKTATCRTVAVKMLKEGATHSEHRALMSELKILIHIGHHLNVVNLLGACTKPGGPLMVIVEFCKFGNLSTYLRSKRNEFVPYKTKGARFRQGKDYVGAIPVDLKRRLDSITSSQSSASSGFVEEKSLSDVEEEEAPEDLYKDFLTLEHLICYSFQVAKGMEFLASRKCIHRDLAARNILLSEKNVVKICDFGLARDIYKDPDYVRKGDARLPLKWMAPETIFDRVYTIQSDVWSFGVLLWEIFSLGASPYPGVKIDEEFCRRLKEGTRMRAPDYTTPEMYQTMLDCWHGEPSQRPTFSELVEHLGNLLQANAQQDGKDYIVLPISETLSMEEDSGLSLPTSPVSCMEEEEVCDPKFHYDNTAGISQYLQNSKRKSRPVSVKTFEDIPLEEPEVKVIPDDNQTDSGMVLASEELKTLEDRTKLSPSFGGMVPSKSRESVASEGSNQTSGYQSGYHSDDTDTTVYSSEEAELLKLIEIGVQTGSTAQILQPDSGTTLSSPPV
Histamine H3 receptor, sequence (Q9Y5N1 whole entry): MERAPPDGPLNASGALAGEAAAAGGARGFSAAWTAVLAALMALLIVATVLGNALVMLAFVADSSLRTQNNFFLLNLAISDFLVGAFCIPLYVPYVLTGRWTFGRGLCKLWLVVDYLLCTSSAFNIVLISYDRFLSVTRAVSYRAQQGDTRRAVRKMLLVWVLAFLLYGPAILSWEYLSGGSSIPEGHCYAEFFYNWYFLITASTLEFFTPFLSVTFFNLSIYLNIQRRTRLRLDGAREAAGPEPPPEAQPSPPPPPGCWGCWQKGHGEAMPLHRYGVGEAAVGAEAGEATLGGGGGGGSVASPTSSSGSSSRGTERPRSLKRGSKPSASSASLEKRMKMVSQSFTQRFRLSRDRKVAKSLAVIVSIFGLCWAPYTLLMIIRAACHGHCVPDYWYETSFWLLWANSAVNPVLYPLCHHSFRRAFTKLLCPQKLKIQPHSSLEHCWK

As to `O=c1[nH]c2ccccc2n1CCN1CCN(c2cccc(C(F)(F)F)c2)CC1` [FLIBANSERIN], the AC50 in test [1], in test [2], in test [3], in test [4], in test [5] and in test [6] was > 30 µM throughout. Besides, the AC50 is > 30 µM in test [7] and 17.7 µM in test [8].
On to `NC(=O)C1(N2CCCCC2)CCN(CCCC(=O)c2ccc(F)cc2)CC1` [PIPAMPERONE], for which the AC50 in test [1] is > 30 µM; in test [2], > 30 µM; in test [3] it was 21.7 µM; in test [4], > 30 µM; in test [5], > 30 µM; in test [6], > 30 µM. Moreover, the values for the half-maximal activity concentration (AC50) in test [7] and in test [8] were > 30 µM and 15.8 µM, respectively.
As to `N=C(N)NCC1COc2ccccc2O1` (stereo unspecified) [GUANOXAN], the AC50 in test [1], in test [2], in test [3], in test [4], in test [5] and in test [6] was > 30 µM throughout. Further, the half-maximal activity concentration (AC50) in test [7] and in test [8] was > 30 µM in each case.
`Cc1cccc(C)c1NC(=O)c1cc(S(N)(=O)=O)c(Cl)cc1O` [XIPAMIDE]: the AC50 in test [1], in test [3], in test [4], in test [5], in test [6] and in test [7] was > 30 µM each time. In addition, the AC50 in test [8] is > 30 µM.
Turning to `C=CCOc1ccc(CC(=O)O)cc1Cl` [ALCLOFENAC], the half-maximal activity concentration (AC50) in test [1], in test [2], in test [3], in test [4], in test [5] and in test [6] was > 30 µM throughout. Further, the concentration at half-maximal activity (AC50) was > 3 µM in test [7] and > 30 µM in test [8].
As for `CN1CCN(C(c2ccccc2)c2ccc(Cl)cc2)CC1` (stereo unspecified) [CHLORCYCLIZINE], the AC50 in test [1] is > 30 µM; in test [2], > 30 µM; in test [3] it was 15.8 µM; in test [4], > 30 µM; in test [5], > 30 µM; in test [6], > 30 µM. In addition, the concentration at half-maximal activity (AC50) in test [7] is > 30 µM; in test [8] it was 15.4 µM.
As for `CO[C@@]1(NC(=O)C(C(=O)O)c2ccc(O)cc2)C(=O)N2C(C(=O)O)=C(CSc3nnnn3C)CO[C@@H]21` (stereo partly specified) [MOXALACTAM], the AC50 in test [1], in test [2], in test [3], in test [5], in test [6] and in test [7] was > 30 µM in each case. Also, the AC50 in test [8] is > 30 µM.
As to `OC[C@H]1NC[C@H](O)[C@@H](O)[C@H]1O`, the AC50 in test [1], in test [2], in test [3], in test [4], in test [5] and in test [6] was > 30 µM in each case. Further, the half-maximal activity concentration (AC50) in test [7] and in test [8] was > 30 µM throughout.
On to `CC#CC(=O)N1CCC[C@H]1c1nc(-c2ccc(C(=O)Nc3ccccn3)cc2)c2c(N)nccn12` [ACALABRUTINIB], for which the AC50 in test [1] is > 30 µM; in test [2], > 30 µM; in test [3] it was > 30 µM; in test [4], 2.01 µM; in test [5], > 30 µM; in test [6], > 30 µM. Moreover, the AC50 in test [7] and in test [8] was > 30 µM throughout.
Consider `O=C1[C@@H]2[C@H]3CC[C@H](C3)[C@@H]2C(=O)N1C[C@@H]1CCCC[C@H]1CN1CCN(c2nsc3ccccc23)CC1` [LURASIDONE], for which the half-maximal activity concentration (AC50) in test [2], in test [3], in test [4], in test [5], in test [6] and in test [7] was > 30 µM in each case. Besides, the concentration at half-maximal activity (AC50) in test [8] was > 30 µM.
As to `N#Cc1ccnc(N2C(=O)CC[C@H]2C(=O)N(c2cncc(F)c2)[C@H](C(=O)NC2CC(F)(F)C2)c2ccccc2Cl)c1` [IVOSIDENIB], the AC50 in test [1], in test [2], in test [3], in test [4], in test [5] and in test [6] was > 30 µM each time. The AC50 in test [7] and in test [8] was > 30 µM throughout.
In the case of `CC(C)(Oc1ccc(Cl)cc1)C(=O)NC(=O)NCN1CCOCC1` [PLAFIBRIDE], the concentration at half-maximal activity (AC50) in test [1], in test [2], in test [3], in test [4], in test [5] and in test [6] was > 30 µM in each case. The AC50 in test [7] and in test [8] was > 30 µM in each case.
For the compound `CCCCCCO[C@@H](C)c1cccc(-c2csc(NC(=O)c3cc(Cl)c(/C=C(\C)C(=O)O)c(Cl)c3)n2)c1OC` [LUSUTROMBOPAG], the AC50 in test [1] was > 30 µM; in test [2] it was 2.91 µM; in test [3], 15.1 µM; in test [4], > 30 µM; in test [5], > 30 µM; in test [6], > 30 µM. Besides, the AC50 in test [7] is 6.42 µM; in test [8] it was > 30 µM.
`CC1=C(C/C=C(\C)CCC[C@H](C)CCC[C@H](C)CCCC(C)C)C(=O)c2ccccc2C1=O` [PHYTONADIONE]: the AC50 in test [1] is > 30 µM; in test [3] it was > 30 µM; in test [4], > 30 µM; in test [5], > 30 µM; in test [6], 3.44 µM; in test [7] it was 13.4 µM. Besides, the AC50 in test [8] was > 30 µM.
In the case of `CCCCCCCC/C=C\CCCCCCCC(=O)O` [OLEIC ACID], the AC50 in test [1], in test [2], in test [3], in test [4], in test [5] and in test [6] was > 30 µM each time. Moreover, the figures for the concentration at half-maximal activity (AC50) in test [7] and in test [8] were 3.54 µM and > 30 µM, respectively.
For `NC(=O)C1(N2CCCCC2)CCN(CCCN2c3ccccc3CCc3ccccc32)CC1` [CARPIPRAMINE], the AC50 in test [1] was 13.7 µM; in test [2], > 30 µM; in test [3] it was 11.7 µM; in test [4], > 30 µM; in test [5] it was > 30 µM; in test [6], > 30 µM. Besides, the half-maximal activity concentration (AC50) in test [7] was > 30 µM; in test [8], 2.73 µM.
As for `CC(C)Nc1cccnc1N1CCN(C(=O)c2cc3cc(NS(C)(=O)=O)ccc3[nH]2)CC1` [DELAVIRDINE], the AC50 in test [1] was > 30 µM; in test [2], > 30 µM; in test [3], > 30 µM; in test [4] it was > 30 µM; in test [5], 24 µM; in test [6] it was > 30 µM. Also, the AC50 in test [7] and in test [8] was > 30 µM throughout.
For `O=C(O)[C@H](O)[C@@H](O)[C@H](O)[C@H](O)CO` [GLUCONIC ACID], the half-maximal activity concentration (AC50) in test [1], in test [3], in test [4], in test [5], in test [6] and in test [7] was > 30 µM in each case. In addition, the AC50 in test [8] was > 30 µM.
Take `C[C@@H](CN1CC(=O)NC(=O)C1)N1CC(=O)NC(=O)C1` [DEXRAZOXANE]: the AC50 in test [1] was > 30 µM; in test [2] it was > 30 µM; in test [3] it was > 30 µM; in test [5], > 30 µM; in test [6], > 30 µM; in test [7] it was 5.98 µM. In test [8], the AC50 was > 30 µM.
